Measurements published in ChEMBL document CHEMBL1123353, “3,17 beta-Dihydroxy-20,21-epoxy-19-norpregna-1,3,5(10)-trienes: synthesis, rearrangement, cytotoxicity, and estrogen-receptor binding” (J Med Chem, 1986).

Key:
HeLa = experiment: Compound was evaluated for toxicity against HeLa S3 cells; type: functional, cell-based; details: Homo sapiens
GH3 = experiment: Compound was evaluated for toxicity against GH3 cells; type: functional, cell-based; details: Rattus norvegicus

Structure (SMILES)	IC50 (HeLa) [µM]	IC50 (GH3) [µM]
C[C@]12CC[C@@H]3c4ccc(OC(=O)N(CCCl)CCCl)cc4CC[C@H]3[C@@H]1CC[C@@H]2O [ESTRAMUSTINE]	3.4	
C[C@]12CC[C@@H]3c4ccc(O)cc4CC[C@H]3[C@@H]1CC[C@@]2(O)[C@H]1CO1	6.5	5.5
C=C[C@@]12COC(=O)C(=C)[C@@H]1[C@H]1OC(=O)C(=C)[C@@H]1[C@@H](O)C2 [VERNOLEPIN]	3.5	5.2
C[C@]12CC[C@@H]3c4ccc(O)cc4CC[C@H]3[C@@H]1CC[C@@]2(O)[C@@H]1CO1	18.6	17.7
